Values of other authors in patent US7351710B2, “Preparation of amorphous form of indiplon” (Mai De Ltd., priority 2005, dated 2008).

Row | Compound | solubility in water (in words) (water) | solubility (in water, crystalline form)
1 | CC(=O)N(C)c1cccc(-c2ccnc3c(C(=O)c4cccs4)cnn23)c1 [Indiplon, N-Methyl-N-[3-[3-[2-thienylcarbonyl]pyrazolo[1,5-a]pyrimidin-7-yl]phenyl]acetamide] | practically insoluble | 
2 | CC(=O)N(C)c1cccc(-c2ccnc3c(C(=O)c4cccs4)cnn23)c1 [crystalline indiplon, N-Methyl-N-[3-[3-[2-thienylcarbonyl]pyrazolo[1,5-a]pyrimidin-7-yl]phenyl]acetamide] |  | 20 to 30 µg/mL
